Bridge positions count the residues as written; N and C are the ends. Ends that are not written are not given here.
Tests used:
MCH-1R(Δ316/EGFP) = assay: Functional activation, aequorin assay (mobilization of intracellular calcium); type: cell-based, human; conditions: FIG. 6; transiently transfected HEK293-AEQ17 cells, aequorin bioluminescence
Method: Functional activation of MCH-1R […] was measured in an aequorin assay. Proteins were introduced in the stable reporter cell line HEK293-AEQ17 in which mobilization of intracellular calcium can be detected by bioluminescence of jelly fish aequorin upon calcium binding.
Bioluminescence was detected using a Luminoskan RT luminometer (Labsystems Inc., Gaithersburg, Md.). HEK293-AEQ17 cells were maintained in D-MEM/high glucose medium (Life Technologies, Rockville, Md.) supplemented with 10% fetal bovine serum, […] G418, 25 mM Hepes at 37° C. with 5% CO2 in a humidified atmosphere. […]
The cells were harvested, washed once in ECB medium and resuspended to 500,000 cells/ml. […] of cell suspension (corresponding to 5×10^4 cells) was then injected into a 96-well test plate, and the integrated light emission was recorded over 30 seconds, in 0.5 second units. 20 μL of lysis buffer (0.1% final Triton X-100 concentration) was then injected and the integrated light emission recorded over 10 seconds, in 0.5 second units. The “fractional response” values for each well were calculated by taking the ratio of the integrated response to the initial challenge to the total integrated luminescence including the Triton X-100 lysis response.

[1] = target: human melanin-concentrating hormone receptor (MCH-1R) (human) (UniProt Q99705); assay: scintillation proximity assay, HEK293-AEQ17/MCH-1R membranes; non-specific binding defined with 500 nM unlabeled MCH
Sequence of human melanin-concentrating hormone receptor (MCH-1R) (human) (Q99705 whole entry): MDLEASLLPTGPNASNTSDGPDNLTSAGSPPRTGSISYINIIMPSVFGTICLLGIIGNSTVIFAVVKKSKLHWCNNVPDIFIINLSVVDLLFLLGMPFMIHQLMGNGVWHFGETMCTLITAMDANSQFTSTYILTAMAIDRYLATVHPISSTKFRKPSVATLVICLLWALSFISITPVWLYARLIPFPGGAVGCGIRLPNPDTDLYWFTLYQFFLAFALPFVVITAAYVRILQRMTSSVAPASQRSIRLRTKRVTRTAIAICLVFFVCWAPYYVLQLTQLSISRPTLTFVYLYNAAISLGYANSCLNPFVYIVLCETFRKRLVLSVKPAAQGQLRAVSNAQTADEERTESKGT

specific binding window [1] | Substance | functional activation of MCH-1R(Δ316/EGFP) (mobilization of intracellular calcium) (MCH-1R(Δ316/EGFP))
 | Melanin-concentrating hormone (DFDMLRCMLGRVYRPCWQV; disulfide 7-16 (inferred); ends not checked) [MCH, cyclic 19-amino acid neuropeptide, MCH-1R agonist] | lack of functional activation
> 6 x (fold) | [125I]Phe13Tyr19-MCH (from UniProt P20382 147-165) (peptide) | 
